From patent publication US20240391862A1, “(1,4,5-TRISUBSTITUTED-1H-PYRAZOL-3-YL)OXY-2-ALKOXY ALKYL ACIDS AND THEIR DERIVATIVES, THEIR SALTS AND THEIR USE AS HERBICIDAL AGENTS” (Bayer AKtiengesellschaft, priority 2021, published 2024) come the findings set out here.

What all share (assay): Pre-emergence herbicidal effect, greenhouse pot test
In one assay the test system is VERPE. Format: in vivo, Veronica persica. The note with it: scored visually after about 3 weeks vs untreated controls. From the text: (§1) Seeds of monocotyledonous and dicotyledonous weed plants and crop plants are placed in plastic or organic planting pots and covered with soil. The compounds of the invention, formulated in the form of wettable powders (WP) or as emulsion concentrates (EC), are then applied to the surface of the covering soil as aqueous suspension or emulsion with addition of 0.5% additive at a water application rate equivalent to 600 l/ha. After the treatment, the pots are placed in a greenhouse and kept under good growth conditions for the trial plants. After about 3 weeks, the effect of the preparations is scored visually in comparison with untreated controls as percentages. For example, 100% activity=the plants have died, 0% activity=like control plants.
(§2) Tables 1a to 19c below show the effects/crop compatibilities of selected compounds of the general formula (I) on various harmful plants at an application rate corresponding to 20 to 320 g/ha, which were obtained by the trial procedure specified above.
(§3) • ALOMY: Alopecurus myosuroides SETVI: Setaria viridis • AVEFA: Avena fatua POLCO: Fallopia convolvulus • AMARE: Amaranthus retroflexus ECHCG: Echinochloa crus-galli • LOLRJ: Lolium rigidum STEME: Stellaria media • VERPE: Veronica persica MATIN: Tripleurospermum inodorum • DIGSA: Digitaria sanguinalis ABUTH: Abutylon threophrasti • TRZAS: Triticum aestivum VIOTR: Viola tricolor • BRSNW: Brassica napus ZEAMX: Zea mays • PHBPU: Ipomoea purpurea GLXMA: Glycine max • ORYSA: Oryza sativa HORMU: Hordeum murinum

For the next assay, the system named is LOLRI. Format: in vivo, Lolium rigidum. The note with it: scored visually after about 3 weeks vs untreated controls.
From the text: as §1, §2, §3

A further assay deals with MATIN. Format: in vivo, Tripleurospermum inodorum. The conditions noted are these: scored visually after about 3 weeks vs untreated controls; for pest or weed control at 320 g/ha: Tripleurospermum inodorum, 504 h, read-out: Pre-emergence effect at 320 g/ha against MATIN in %.
From the text: as §1, §2, §3

Another assay has as its system SETVI. In kind it is in vivo, Setaria viridis. The note with it: Setaria viridis, 504 h, 320 g/ha, scored visually after about 3 weeks vs untreated controls, read-out: Pre-emergence effect at 320 g/ha against SETVI in %.
From the text: as §1, §2, §3

The test system of another assay is PHBPU. In kind it is in vivo, Ipomoea purpurea. The conditions noted are these: scored visually after about 3 weeks vs untreated controls.
From the text: as §1, §2, §3

A further assay concerns DIGSA. Format: in vivo, Digitaria sanguinalis. The note with it: 320 g/ha, scored visually after about 3 weeks vs untreated controls.
From the text: as §1, §2, §3

A further assay deals with AMARE. In kind it is in vivo, Amaranthus retroflexus. The conditions noted are these: scored visually after about 3 weeks vs untreated controls; for pest or weed control at 320 g/ha: Amaranthus retroflexus, 504 h, read-out: Pre-emergence effect at 320 g/ha against AMARE in %.
From the text: as §1, §2, §3

The next assay deals with ABUTH. In kind it is in vivo, Abutilon theophrasti. The note with it: 320 g/ha, scored visually after about 3 weeks vs untreated controls.
From the text: as §1, §2, §3

A further assay concerns VIOTR. In kind it is in vivo, Viola tricolor. The conditions noted are these: scored visually after about 3 weeks vs untreated controls.
From the text: as §1, §2, §3

A further assay relates to POLCO. Format: in vivo, Fallopia convolvulus. The note with it: scored visually after about 3 weeks vs untreated controls; for pest or weed control at 320 g/ha: Fallopia convolvulus, 504 h, read-out: Pre-emergence effect at 320 g/ha against POLCO in %.
From the text: as §1, §2, §3

In a further assay the test system is ECHCG. In kind it is in vivo, Echinochloa crus-galli. The conditions noted are these: scored visually after about 3 weeks vs untreated controls; for pest or weed control at 320 g/ha: Echinochloa crus-galli, 504 h, read-out: Pre-emergence effect at 320 g/ha against ECHCG in %.
From the text: as §1, §2, §3

A further assay concerns ALOMY. In kind it is in vivo, Alopecurus myosuroides. The conditions noted are these: scored visually after about 3 weeks vs untreated controls.
From the text: as §1, §2, §3

In a further assay the test system is AVEFA. Format: in vivo, Avena fatua. The conditions noted are these: scored visually after about 3 weeks vs untreated controls.
From the text: as §1, §2, §3

The structures appear in SMILES notation.

Turning to `COC(=O)C(OC)Oc1nn(-c2cc(F)ccc2F)c(-c2cncc(F)c2)c1C1CC1` (centres unmarked) [Example I-31, Methyl {[4-cyclopropyl-1-(2,5-difluorophenyl)-5-(5-fluoropyridin-3-yl)-1H-pyrazol-3-yl]oxy}(methoxy)acetate], the “Pre-emergence effect at 320 g/ha against VERPE in %” value with VERPE is given as 90%. Also, the “Pre-emergence effect at 320 g/ha against LOLRI in %” value in the assay with LOLRI was found to be 100%. Moreover, in the assay with MATIN, the “Pre-emergence effect at 80 g/ha against MATIN in %” value is 90% and the pest or weed control at 320 g/ha was found to be 100%. For the same compound, in the assay with SETVI, the pest or weed control at 320 g/ha amounted to 90%. Moreover, in the assay with PHBPU, the “Pre-emergence effect at 80 g/ha against PHBPU in %” value is listed as 90% and the “Pre-emergence effect at 320 g/ha against PHBPU in %” value is reported as 90%. Moreover, in the assay on DIGSA, the “Pre-emergence effect at 320 g/ha against DIGSA in %” value was determined as 90%. For the same compound, the “Pre-emergence effect at 20 g/ha against AMARE in %” value in the assay with AMARE (20 g/ha) was determined as 80%. Further, in the assay with AMARE, the “Pre-emergence effect at 80 g/ha against AMARE in %” value turned out to be 100% and the pest or weed control at 320 g/ha came to 100%. For the same compound, the “Pre-emergence effect at 320 g/ha against ABUTH in %” value in the assay with ABUTH was 80%. In the assay on VIOTR, the “Pre-emergence effect at 80 g/ha against VIOTR in %” value was determined as 100% and the “Pre-emergence effect at 320 g/ha against VIOTR in %” value turned out to be 100%. Further, in the assay on POLCO, the “Pre-emergence effect at 20 g/ha against POLCO in %” value was found to be 80%, the “Pre-emergence effect at 80 g/ha against POLCO in %” value is on record as 100% and the pest or weed control at 320 g/ha worked out at 100%. Moreover, in the assay on ECHCG, the “Pre-emergence effect at 80 g/ha against ECHCG in %” value is 90% and the pest or weed control at 320 g/ha turned out to be 100%. Besides, the “Pre-emergence effect at 320 g/ha against ALOMY in %” value in the assay on ALOMY is listed as 100%. Moreover, in the assay with AVEFA, the “Pre-emergence effect at 80 g/ha against AVEFA in %” value is 90% and the “Pre-emergence effect at 320 g/ha against AVEFA in %” value was determined as 90%.

For the compound `COC(Oc1nn(-c2cc(F)ccc2F)c(-c2cncc(F)c2)c1C1CC1)C(=O)O` (centres unmarked) [Example I-34], the “Pre-emergence effect at 320 g/ha against VERPE in %” value in the assay with VERPE was determined as 80%. Moreover, in the assay on LOLRI (80 g/ha), the “Pre-emergence effect at 80 g/ha against LOLRI in %” value is 90%. The “Pre-emergence effect at 320 g/ha against LOLRI in %” value with LOLRI is given as 100%. For the same compound, in the assay with MATIN, the “Pre-emergence effect at 80 g/ha against MATIN in %” value is recorded as 90% and the pest or weed control at 320 g/ha amounted to 90%. Moreover, in the assay with SETVI, the pest or weed control at 320 g/ha is 90%. In the assay with PHBPU, the “Pre-emergence effect at 80 g/ha against PHBPU in %” value is 90% and the “Pre-emergence effect at 320 g/ha against PHBPU in %” value stood at 90%. The “Pre-emergence effect at 320 g/ha against DIGSA in %” value in the assay with DIGSA came to 80%. In the assay on AMARE, the “Pre-emergence effect at 80 g/ha against AMARE in %” value was found to be 100% and the pest or weed control at 320 g/ha was 100%. In addition, in the assay on ABUTH, the “Pre-emergence effect at 320 g/ha against ABUTH in %” value is recorded as 90%. The “Pre-emergence effect at 20 g/ha against VIOTR in %” value in the assay with VIOTR (20 g/ha) is listed as 80%. Moreover, in the assay with VIOTR, the “Pre-emergence effect at 80 g/ha against VIOTR in %” value is 100% and the “Pre-emergence effect at 320 g/ha against VIOTR in %” value came to 100%. Moreover, in the assay with POLCO, the “Pre-emergence effect at 20 g/ha against POLCO in %” value is given as 90%, the “Pre-emergence effect at 80 g/ha against POLCO in %” value is listed as 90% and the pest or weed control at 320 g/ha was 90%. Also, in the assay on ECHCG, the “Pre-emergence effect at 80 g/ha against ECHCG in %” value was determined as 90% and the pest or weed control at 320 g/ha was 100%. Also, the “Pre-emergence effect at 80 g/ha against ALOMY in %” value in the assay with ALOMY (80 g/ha) is reported as 90%. Further, the “Pre-emergence effect at 320 g/ha against ALOMY in %” value in the assay with ALOMY is 100%. Moreover, the “Pre-emergence effect at 20 g/ha against AVEFA in %” value in the assay with AVEFA (20 g/ha) stood at 80%. In addition, in the assay with AVEFA, the “Pre-emergence effect at 80 g/ha against AVEFA in %” value is recorded as 90% and the “Pre-emergence effect at 320 g/ha against AVEFA in %” value turned out to be 100%.
